Test system: MV-4-11 cells
Experiment: Gene expression microarray analysis (Affymetrix PrimeView) and GSEA
Assay type: cell-based, human
Set-up: RFU PODN (11730768_x_at) / Fold change /veh PODN (11730768_x_at) / RFU LINC00158 (11744669_a_at) / Fold change /veh LINC00158 (11744669_a_at) / RFU DUSP10 (11751237_a_at) / Fold change /veh DUSP10 (11751237_a_at) / RFU ID3 (11757404_x_at) / Fold change /veh ID3 (11757404_x_at) / RFU PLEKHG5 (11737974_s_at) / Fold change /veh PLEKHG5 (11737974_s_at) / RFU LRRC4B (11730491_at) / Fold change /veh LRRC4B (11730491_at) / RFU GIMAP4 (11747438_a_at) / Fold change /veh GIMAP4 (11747438_a_at) / RFU KRT8 (11758183_x_at) / Fold change /veh KRT8 (11758183_x_at) / RFU CNN1 (11734310_a_at) / Fold change /veh CNN1 (11734310_a_at) / RFU VPS37D (11726825_at) / Fold change /veh VPS37D (11726825_at) / RFU C10orf10 (11716522_x_at) / Fold change /veh C10orf10 (11716522_x_at) / RFU KIR2DL2 /// KIR2DL4 /// KIR2DL5A /// KIR2DL5B /// KIR2DS1 /// KIR2DS2 /// KIR2DS3 /// KIR2DS4 /// KIR3DL3 /// KIR3DL3 /// KIR3DS1 (11738374_at) / Fold change /veh KIR2DL2 /// KIR2DL4 /// KIR2DL5A /// KIR2DL5B /// KIR2DS1 /// KIR2DS2 /// KIR2DS3 /// KIR2DS4 /// KIR3DL3 /// KIR3DL3 /// KIR3DS1 (11738374_at) / RFU C1QL1 (11718748_at) / Fold change /veh C1QL1 (11718748_at) / RFU TMPRSS4 (11747572_a_at) / Fold change /veh TMPRSS4 (11747572_a_at) / RFU HAMP (11756126_x_at) / Fold change /veh HAMP (11756126_x_at) / RFU RNFT2 (11725882_a_at) / Fold change /veh RNFT2 (11725882_a_at) / RFU NR4A2 (11747474_a_at) / Fold change /veh NR4A2 (11747474_a_at) / RFU ABCC12 (11746883_a_at) / Fold change /veh ABCC12 (11746883_a_at) / RFU TMEM136 (11760407_x_at) / Fold change /veh TMEM136 (11760407_x_at) / RFU CLDN22 /// WWC2 (11732394_at) / Fold change /veh CLDN22 /// WWC2 (11732394_at) / RFU HLA-DPB1 (11760878_x_at) / Fold change /veh HLA-DPB1 (11760878_x_at) / RFU SPINT1 (11716480_a_at) / Fold change /veh SPINT1 (11716480_a_at) / RFU GAP43 (11754022_s_at) / Fold change /veh GAP43 (11754022_s_at) / RFU A4GNT (11735810_at) / Fold change /veh A4GNT (11735810_at) / RFU PRB3 (11715151_x_at) / Fold change /veh PRB3 (11715151_x_at) / RFU TUBB4B (11761932_at) / Fold change /veh TUBB4B (11761932_at) / RFU CAPN14 (11732068_a_at) / Fold change /veh CAPN14 (11732068_a_at) / RFU TMCC2 (11721928_a_at) / Fold change /veh TMCC2 (11721928_a_at) / RFU IRGQ (11745062_a_at) / Fold change /veh IRGQ (11745062_a_at) / RFU FAM174B (11720279_a_at) / Fold change /veh FAM174B (11720279_a_at) / RFU TMPRSS4 (11748680_a_at) / Fold change /veh TMPRSS4 (11748680_a_at) / RFU FAM212B (11763350_a_at) / Fold change /veh FAM212B (11763350_a_at) / RFU PLEKHG5 (11743358_a_at) / Fold change /veh PLEKHG5 (11743358_a_at) / RFU ZSCAN30 (11745921_a_at) / Fold change /veh ZSCAN30 (11745921_a_at) / RFU CMKLR1 (11741424_a_at) / Fold change /veh CMKLR1 (11741424_a_at) / RFU LOC101060620 /// MAPK8IP1 (11723275_at) / Fold change /veh LOC101060620 /// MAPK8IP1 (11723275_at) / RFU SPTSSB (11747773_x_at) / Fold change /veh SPTSSB (11747773_x_at) / RFU PRSS12 (11739890_at) / Fold change /veh PRSS12 (11739890_at) / RFU BIN1 (11741810_x_at) / Fold change /veh BIN1 (11741810_x_at) / RFU WNT11 (11732464_a_at) / Fold change /veh WNT11 (11732464_a_at) / RFU C10orf10 (11716521_a_at) / Fold change /veh C10orf10 (11716521_a_at) / RFU C5orf56 (11738089_at) / Fold change /veh C5orf56 (11738089_at) / RFU CYB561 (11721691_x_at) / Fold change /veh CYB561 (11721691_x_at) / RFU ANKRD19P (11752326_a_at) / Fold change /veh ANKRD19P (11752326_a_at) / RFU OR2T12 /// OR2T33 /// OR2T8 (11738714_s_at) / Fold change /veh OR2T12 /// OR2T33 /// OR2T8 (11738714_s_at) / RFU VCAN (11748164_a_at) / Fold change /veh VCAN (11748164_a_at) / RFU JSRP1 (11732532_at) / Fold change /veh JSRP1 (11732532_at) / RFU KRTAP10-11 (11738290_x_at) / Fold change /veh KRTAP10-11 (11738290_x_at) / RFU MYO3A (11730013_a_at) / Fold change /veh MYO3A (11730013_a_at) / RFU EBF3 (11725865_a_at) / Fold change /veh EBF3 (11725865_a_at) / RFU CAMK2N1 (11719241_x_at) / Fold change /veh CAMK2N1 (11719241_x_at) / RFU C5orf56 (11738088_a_at) / Fold change /veh C5orf56 (11738088_a_at) / RFU OLFML3 (11715873_a_at) / Fold change /veh OLFML3 (11715873_a_at) / RFU LOC100653217 /// NTM (11731650_a_at) / Fold change /veh LOC100653217 /// NTM (11731650_a_at) / RFU MAPK11 (11762145_a_at) / Fold change /veh MAPK11 (11762145_a_at) / RFU FIZ1 (11724087_x_at) / Fold change /veh FIZ1 (11724087_x_at) / RFU OASL (11726364_x_at) / Fold change /veh OASL (11726364_x_at) / RFU SOX15 (11748057_x_at) / Fold change /veh SOX15 (11748057_x_at) / RFU CD79A (11719716_a_at) / Fold change /veh CD79A (11719716_a_at) / RFU HIST1H1D (11736915_at) / Fold change /veh HIST1H1D (11736915_at) / RFU CASKIN2 (11723855_a_at) / Fold change /veh CASKIN2 (11723855_a_at) / RFU LOC730098 (11760151_x_at) / Fold change /veh LOC730098 (11760151_x_at) / RFU OR4N2 (11742367_at) / Fold change /veh OR4N2 (11742367_at) / RFU PRRT2 (11749266_a_at) / Fold change /veh PRRT2 (11749266_a_at) / RFU SNX32 (11753110_a_at) / Fold change /veh SNX32 (11753110_a_at) / RFU CDHR5 (11726645_a_at) / Fold change /veh CDHR5 (11726645_a_at) / RFU RCAN1 (11760418_a_at) / Fold change /veh RCAN1 (11760418_a_at) / RFU FAM167A (11723789_a_at) / Fold change /veh FAM167A (11723789_a_at) / RFU FAM26E (11764081_at) / Fold change /veh FAM26E (11764081_at) / RFU ISYNA1 (11749810_s_at) / Fold change /veh ISYNA1 (11749810_s_at) / RFU ACY1 (11761880_at) / Fold change /veh ACY1 (11761880_at) / RFU 11764098_at / Fold change /veh 11764098_at / RFU SAMD14 (11745864_x_at) / Fold change /veh SAMD14 (11745864_x_at) / RFU NPB (11741838_a_at) / Fold change /veh NPB (11741838_a_at) / RFU TMPRSS6 (11731388_a_at) / Fold change /veh TMPRSS6 (11731388_a_at) / RFU KRTAP10-2 (11738614_at) / Fold change /veh KRTAP10-2 (11738614_at) / RFU ARHGAP8 /// PRR5-ARHGAP8 (11727945_x_at) / Fold change /veh ARHGAP8 /// PRR5-ARHGAP8 (11727945_x_at) / RFU KRTAP5-7 /// NADSYN1 (11734609_at) / Fold change /veh KRTAP5-7 /// NADSYN1 (11734609_at) / RFU RASL12 (11751679_a_at) / Fold change /veh RASL12 (11751679_a_at) / RFU CDKN2B (11736163_a_at) / Fold change /veh CDKN2B (11736163_a_at) / RFU PRF1 (11729649_at) / Fold change /veh PRF1 (11729649_at) / RFU, ZNF638 /// ZNF638-IT1 / Fold change vs veh, ZNF638 /// ZNF638-IT1 / RFU, PANK3 / Fold change vs veh, PANK3 / RFU, SH3YL1 / Fold change vs veh, SH3YL1 / RFU, ZEB2 / Fold change vs veh, ZEB2 / RFU, NRIP1 / Fold change vs veh, NRIP1 / RFU, PTTG1IP / Fold change vs veh, PTTG1IP / RFU, CAPN2 / Fold change vs veh, CAPN2 / RFU, MED14 / Fold change vs veh, MED14 / RFU, SNORA58 / Fold change vs veh, SNORA58 / RFU, C1orf63 / Fold change vs veh, C1orf63 / RFU, LRRFIP1 / Fold change vs veh, LRRFIP1 / RFU, NDUFAF7 / Fold change vs veh, NDUFAF7 / RFU, SLC12A2 / Fold change vs veh, SLC12A2 / RFU, IBTK / Fold change vs veh, IBTK / RFU, ESF1 / Fold change vs veh, ESF1 / Fold change vs veh, TMEM50B / RFU, TAOK1 / Fold change vs veh, TAOK1 / RFU, ACBD3 / Fold change vs veh, ACBD3 / RFU, TMA16 / Fold change vs veh, TMA16 / RFU, RWDD3 / Fold change vs veh, RWDD3 / RFU, BCAT1 / Fold change vs veh, BCAT1 / RFU, EDEM3 / Fold change vs veh, EDEM3 / RFU, TMEM33 / Fold change vs veh, TMEM33 / RFU, WDR75 / Fold change vs veh, WDR75 / RFU, AHCTF1 / Fold change vs veh, AHCTF1 / RFU, TFRC / Fold change vs veh, TFRC / RFU, ZDHHC17 / Fold change vs veh, ZDHHC17 / RFU, NOM1 / Fold change vs veh, NOM1 / RFU, ARL8B / Fold change vs veh, ARL8B / RFU, ZBTB11 / Fold change vs veh, ZBTB11 / RFU, TAMM41 / Fold change vs veh, TAMM41 / RFU, KIAA1704 /// LOC100996395 / Fold change vs veh, KIAA1704 /// LOC100996395 / RFU, ING1 / Fold change vs veh, ING1 / RFU, TRMT61B / Fold change vs veh, TRMT61B / RFU, FUBP3 / Fold change vs veh, FUBP3 / RFU, TP53 / Fold change vs veh, TP53 / RFU, TNKS2 / Fold change vs veh, TNKS2 / RFU, ZFP14 / Fold change vs veh, ZFP14 / RFU, ACTR2 / Fold change vs veh, ACTR2 / RFU, PPP3R1 / Fold change vs veh, PPP3R1 / RFU, PIK3R1 / Fold change vs veh, PIK3R1 / RFU, HNRNPA1 / Fold change vs veh, HNRNPA1 / RFU, RNF170 / Fold change vs veh, RNF170 / RFU, ZNF28 / Fold change vs veh, ZNF28 / RFU, RNGTT / Fold change vs veh, RNGTT / RFU, OGT / Fold change vs veh, OGT / RFU, BRD1 / Fold change vs veh, BRD1 / RFU, MARS / Fold change vs veh, MARS / RFU, ZNF655 / Fold change vs veh, ZNF655 / RFU, FAHD1 / Fold change vs veh, FAHD1 / RFU, BDP1 / Fold change vs veh, BDP1 / RFU, LRRCC1 / Fold change vs veh, LRRCC1 / RFU, ARID1A / Fold change vs veh, ARID1A / RFU, ZNF146 / Fold change vs veh, ZNF146 / RFU, ZNF330 / Fold change vs veh, ZNF330 / RFU, GPN3 / Fold change vs veh, GPN3 / RFU, C9orf123 / Fold change vs veh, C9orf123 / RFU, N4BP2L2 / Fold change vs veh, N4BP2L2 / RFU, ARFIP1 / Fold change vs veh, ARFIP1 / RFU, FAM179B / Fold change vs veh, FAM179B / RFU, BCL10 / Fold change vs veh, BCL10 / RFU, UHRF1BP1L / Fold change vs veh, UHRF1BP1L / RFU, BET1 / Fold change vs veh, BET1 / RFU, CNOT2 / Fold change vs veh, CNOT2 / RFU, ZNF268 / Fold change vs veh, ZNF268 / Fold change vs veh, ZNF507 / RFU, DGCR2 / Fold change vs veh, DGCR2 / RFU, WDSUB1 / Fold change vs veh, WDSUB1 / Fold change vs veh, HSP90B1 /// MIR3652 / RFU, ADSS / Fold change vs veh, ADSS / RFU, GK / Fold change vs veh, GK / RFU, ZNF148 / Fold change vs veh, ZNF148 / RFU, TAF9 / Fold change vs veh, TAF9 / RFU, SLC1A5 / Fold change vs veh, SLC1A5 / RFU, SLMO2 / Fold change vs veh, SLMO2 / RFU, ABCC4 / Fold change vs veh, ABCC4 / RFU, LOC101060439 /// RAP1B / Fold change vs veh, LOC101060439 /// RAP1B / RFU, RFX7 / Fold change vs veh, RFX7 / RFU, GTPBP10 / Fold change vs veh, GTPBP10 / RFU, CNEP1R1 / Fold change vs veh, CNEP1R1 / RFU, BIVM-ERCC5 /// ERCC5 / Fold change vs veh, BIVM-ERCC5 /// ERCC5 / RFU, ILF3 / Fold change vs veh, ILF3 / RFU 11762660_at / Fold change /veh 11762660_at / RFU VCAN (11757783_s_at) / Fold change /veh VCAN (11757783_s_at) / RFU DDX43 (11728927_at) / Fold change /veh DDX43 (11728927_at) / RFU KRT8 (11758188_x_at) / Fold change /veh KRT8 (11758188_x_at) / RFU NKD1 (11759106_at) / Fold change /veh NKD1 (11759106_at) / RFU SRD5A1 (11742802_a_at) / Fold change /veh SRD5A1 (11742802_a_at) / RFU TPSAB1 /// TPSB2 (11721975_s_at) / Fold change /veh TPSAB1 /// TPSB2 (11721975_s_at) / RFU GSTM3 (11746129_a_at) / Fold change /veh GSTM3 (11746129_a_at) / RFU IL23R (11737362_x_at) / Fold change /veh IL23R (11737362_x_at) / RFU TMEM51 (11727254_a_at) / Fold change /veh TMEM51 (11727254_a_at) / RFU PIWIL2 (11732686_x_at) / Fold change /veh PIWIL2 (11732686_x_at) / RFU ORM1 (11744905_x_at) / Fold change /veh ORM1 (11744905_x_at) / RFU CCDC152 (11743942_at) / Fold change /veh CCDC152 (11743942_at) / RFU ECM1 (11717891_a_at) / Fold change /veh ECM1 (11717891_a_at) / RFU IL23R (11748794_a_at) / Fold change /veh IL23R (11748794_a_at) / RFU TNFAIP8L3 (11732012_x_at) / Fold change /veh TNFAIP8L3 (11732012_x_at) / RFU MBOAT4 (11741988_at) / Fold change /veh MBOAT4 (11741988_at) / RFU 11764193_at / Fold change /veh 11764193_at / RFU TMEM53 (11763286_at) / Fold change /veh TMEM53 (11763286_at) / RFU MAGEB2 (11727129_at) / Fold change /veh MAGEB2 (11727129_at) / RFU TMEM200A (11744735_a_at) / Fold change /veh TMEM200A (11744735_a_at) / RFU CCDC152 (11751479_a_at) / Fold change /veh CCDC152 (11751479_a_at) / RFU FAM211A (11726209_a_at) / Fold change /veh FAM211A (11726209_a_at) / RFU RGS16 (11746705_a_at) / Fold change /veh RGS16 (11746705_a_at) / RFU VCAN (11755009_s_at) / Fold change /veh VCAN (11755009_s_at) / RFU RHOB (11743442_s_at) / Fold change /veh RHOB (11743442_s_at) / RFU RGS16 (11720943_a_at) / Fold change /veh RGS16 (11720943_a_at) / RFU RGS16 (11720944_at) / Fold change /veh RGS16 (11720944_at) / RFU, VPS4B / Fold change vs veh, VPS4B / RFU, CREB1 / Fold change vs veh, CREB1 / RFU, DNAJC13 / Fold change vs veh, DNAJC13 / RFU, GNAQ / Fold change vs veh, GNAQ / RFU, CDK5R1 / Fold change vs veh, CDK5R1 / RFU, ZRANB3 / Fold change vs veh, ZRANB3 / RFU, CUL4A / Fold change vs veh, CUL4A / RFU, CCNY / Fold change vs veh, CCNY / RFU, UFL1 / Fold change vs veh, UFL1 / RFU, COG3 / Fold change vs veh, COG3 / RFU, DIAPH2 / Fold change vs veh, DIAPH2 / RFU, SKA2 / Fold change vs veh, SKA2 / RFU, AFF3 / Fold change vs veh, AFF3 / RFU, LMF1 / Fold change vs veh, LMF1 / RFU, IPO11 / Fold change vs veh, IPO11 / RFU, DFFB / Fold change vs veh, DFFB / RFU, FOXP1 / Fold change vs veh, FOXP1 / RFU, CARD8 / Fold change vs veh, CARD8 / RFU, STRN3 / Fold change vs veh, STRN3 / RFU, ADK / Fold change vs veh, ADK / RFU, RASSF2 / Fold change vs veh, RASSF2 / RFU, WIPF1 / Fold change vs veh, WIPF1 / RFU, LARP1B / Fold change vs veh, LARP1B / RFU, RASA1 / Fold change vs veh, RASA1 / RFU, RB1 / Fold change vs veh, RB1 / RFU, PPFIA1 / Fold change vs veh, PPFIA1 / RFU, MAT2A / Fold change vs veh, MAT2A / RFU, CCT5 / Fold change vs veh, CCT5 / RFU, WDR92 / Fold change vs veh, WDR92 / RFU, CUX1 / Fold change vs veh, CUX1 / RFU, TTC7A / Fold change vs veh, TTC7A / RFU, TMEM135 / Fold change vs veh, TMEM135 / RFU, DEPTOR / Fold change vs veh, DEPTOR / RFU, CPM / Fold change vs veh, CPM / RFU, DNAJB6 / Fold change vs veh, DNAJB6 / RFU, CACNA2D3 / Fold change vs veh, CACNA2D3 / RFU, DTX4 / Fold change vs veh, DTX4 / RFU, TFCP2 / Fold change vs veh, TFCP2 / RFU, GMCL1 /// GMCL1P1 / Fold change vs veh, GMCL1 /// GMCL1P1 / RFU, AEBP2 / Fold change vs veh, AEBP2 / RFU, SNHG1 /// SNORD22 /// SNORD25 /// SNORD26 /// SNORD27 /// SNORD28 /// SNORD29 /// SNORD31 / Fold change vs veh, SNHG1 /// SNORD22 /// SNORD25 /// SNORD26 /// SNORD27 /// SNORD28 /// SNORD29 /// SNORD31 / Fold change (Aza/veh), C12orf56 (ProbeSet 11735607_a_at) / Fold change (ACY-1035/veh), C12orf56 (ProbeSet 11735607_a_at) / Fold change (Aza/veh), FGFR1OP (ProbeSet 11751329_s_at) / Fold change (ACY-1035/veh), FGFR1OP (ProbeSet 11751329_s_at) / Fold change (Aza/veh), VPS36 (ProbeSet 11739960_a_at) / Fold change (ACY-1035/veh), VPS36 (ProbeSet 11739960_a_at) / RFU SYPL1 (11715823_x_at) / Fold change /veh SYPL1 (11715823_x_at) / RFU IGFBP7 (11715501_s_at) / Fold change /veh IGFBP7 (11715501_s_at) / RFU REEP3 (11722064_at) / Fold change /veh REEP3 (11722064_at) / RFU IGLL1 (11728026_x_at) / Fold change /veh IGLL1 (11728026_x_at): dose or concentration left out as unconfirmed
Conditions: ProbeSet 11748670_a_at; LIST B

Nc1ccc(-c2cccs2)cc1NC(=O)c1ccc2c(c1)cc(C1CC1)n2CCN1CCOCC1 [ACY-1035]
RFU, PIK3R1: 70.67 RFU

From PMC5218480 (PLoS ONE, 2017)
